Experimental findings from patent publication US10961215B2, “N-aryl and N-heteroaryl piperidine derivatives as liver X receptor beta agonists, compositions, and their use” (Merck Sharp & Dohme Corp., priority 2016, dated 2021) are described below.

The target of experiment [1] is T1, GST tagged LXRalpha LBD (ligand binding domain) (Homo sapiens, UniProt Q13133).
T1 construct: purchased Invitrogen pv4655
T1 sequence (Q13133 209-447 limits assumed): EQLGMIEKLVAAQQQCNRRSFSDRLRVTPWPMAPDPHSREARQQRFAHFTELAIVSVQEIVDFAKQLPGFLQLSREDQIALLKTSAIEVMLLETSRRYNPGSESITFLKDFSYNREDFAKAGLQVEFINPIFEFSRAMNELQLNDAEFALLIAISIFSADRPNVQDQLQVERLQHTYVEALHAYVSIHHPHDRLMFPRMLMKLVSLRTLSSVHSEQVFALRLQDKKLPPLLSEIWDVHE
Briefly: LanthaScreen TR-FRET Liver X Receptor Coactivator Assay, LXR alpha-LBD (co-activator recruitment; IP and % Emax relative to T0901317). The class given is biochemical. Conditions: for EC50 / LXR alpha IP (nM): Inflection Point of co-activator recruitment, LXR alpha-LBD, TR-FRET; for Emax: read-out: LXR alpha actiivty at max dose (%). In short, it runs like this: (§1)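 GST-tagged LXRα or LXRβ LBD was added to test compounds, then fluorescein-labelled coactivator peptide plus terbium anti-GST antibody. After room-temperature incubation, TR-FRET was read. Inflection point and Emax derive from coactivator recruitment relative to reference agonist T0901317.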

Experiment [2] addresses T2, GST tagged LXRbeta LBD (ligand binding domain) (Homo sapiens, UniProt P55055).
T2 construct: purchased Invitrogen pv4658.pps
T2 sequence (P55055 222-460 limits assumed): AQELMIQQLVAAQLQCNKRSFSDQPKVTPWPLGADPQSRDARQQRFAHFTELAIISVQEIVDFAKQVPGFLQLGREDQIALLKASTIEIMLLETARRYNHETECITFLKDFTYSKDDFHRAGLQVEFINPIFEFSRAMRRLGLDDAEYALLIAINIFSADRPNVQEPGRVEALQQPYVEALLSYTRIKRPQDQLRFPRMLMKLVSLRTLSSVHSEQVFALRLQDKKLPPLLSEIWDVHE
Briefly: LanthaScreen TR-FRET Liver X Receptor Coactivator Assay, LXR beta-LBD (co-activator recruitment; IP and % Emax relative to T0901317). The class given is biochemical. The following applies: for EC50: Inflection Point of co-activator recruitment, LXR beta-LBD, TR-FRET; for Emax: read-out: LXR beta actiivty at max dose (%). In short, it runs like this: as §1
On the technique in general: In TR-FRET formats the signal depends on donor and acceptor labels being close together.

Where [3] appears, read: efficacy at max dose in relation to reference T0901317, LXR alpha-LBD.
Setting [4] is: efficacy at max dose in relation to reference T0901317, LXR beta-LBD.

Consider `CC(C)NC(=O)c1ccc(N2CCC3(CC2)C[C@@H]3CCN(C)C(=O)[C@](O)(c2ccccc2)C(F)(F)F)cc1Cl` [Example 7-12, 2-chloro-N-isopropyl-4-((R)-1-(2-((R)-3,3,3-trifluoro-2-hydroxy-N-methyl-2-phenylpropanamido)ethyl)-6-azaspiro[2.5]octan-6-yl)benzamide], for which the EC50 in experiment [1] is 765 nM; in experiment [2], 79 nM. In addition, the Emax amounted to 47% in experiment [1] (setting [3]) and 64% in experiment [2] (setting [4]).

As to `COc1cccc([C@@](O)(C(=O)N(C)CCCC2CCN(c3ccc(C(=O)N(C)C)c(C4CC4)n3)CC2)C(F)(F)F)c1` [Example 2-17, (R)-2-cyclopropyl-N,N-dimethyl-6-(4-(3-(3,3,3-trifluoro-2-hydroxy-2-(3-methoxyphenyl)-N-methylpropanamido)propyl)piperidin-1-yl)nicotinamide], the “LXR alpha IP (nM)” value in experiment [1] is “No IP”. The Emax in experiment [1] (setting [3]) came to 0%; in experiment [2] (setting [4]) it was 22%. In experiment [2], this compound yielded an EC50 of 5730 nM.

Turning to `COc1cccc([C@@](O)(C(=O)N(C)CC[C@@H]2CC23CCN(c2ccc(C(=O)NC(C)C)c(Cl)c2)CC3)C(F)(F)F)c1` [Example 7-23, 2-chloro-N-isopropyl-4-((S)-1-(2-((R)-3,3,3-trifluoro-2-hydroxy-2-(3-methoxyphenyl)-N-methylpropanamido)ethyl)-6-azaspiro[2.5]octan-6-yl)benzamide], the “LXR alpha IP (nM)” value in experiment [1] is given as “No IP”. Moreover, the Emax in experiment [1] (setting [3]) was 7%; in experiment [2] (setting [4]) it was 32%. This compound yielded an EC50 in experiment [2] of 2070 nM.

For the compound `COc1cccc([C@@](O)(C(=O)NC[C@@H](F)CC2CCN(c3ccc(C(=O)N(C)C)c(Cl)n3)CC2)C(F)(F)F)c1` [Example 3-6], in experiment [1], the “LXR alpha IP (nM)” value was “No IP”. Further, the values for the Emax in experiment [1] (setting [3]) and in experiment [2] (setting [4]) were 7% and 38%, respectively. The compound further yielded an EC50 in experiment [2] of 961 nM.

As to `CN(C)C(=O)c1ccc(N2CCC(CCCN(C)C(=O)[C@](O)(c3ccccc3)C3CC3)CC2)nc1Cl` [Example 1-24, (R)-2-chloro-6-(4-(3-(2-cyclopropyl-2-hydroxy-N-methyl-2-phenylacetamido)propyl)piperidin-1-yl)-N,N-dimethylnicotinamide], the “LXR alpha IP (nM)” value in experiment [1] was “No IP”. In addition, the Emax in experiment [1] (setting [3]) stood at 12%; in experiment [2] (setting [4]) it was 59%. The EC50 in experiment [2] is 351 nM.

`CN(C)C(=O)c1ccc(N2CCC(CCCN(C)C(=O)[C@@](O)(c3cc(F)cc(Cl)c3)C(F)(F)F)CC2)nc1Cl` [Example 1-11, (S)-2-chloro-6-(4-(3-(2-(3-chloro-5-fluorophenyl)-3,3,3-trifluoro-2-hydroxy-N-methylpropanamido)propyl)piperidin-1-yl)-N,N-dimethylnicotinamide]: the “LXR alpha IP (nM)” value in experiment [1] was “No IP”. Moreover, the Emax in experiment [1] (setting [3]) was 0%; in experiment [2] (setting [4]), 59%. The compound also returned an EC50 in experiment [2] of 453 nM.

Consider `COc1cccc([C@@](O)(C(=O)N(C)CC2CC(C3CCN(c4ccc(C(=O)N(C)C)c(Cl)n4)CC3)C2)C(F)(F)F)c1` (stereo partly drawn) [Example 16-1, (R)-2-chloro-N,N-dimethyl-6-(4-(3-((3,3,3-trifluoro-2-hydroxy-2-(3-methoxyphenyl)-N-methylpropanamido)methyl)cyclobutyl)piperidin-1-yl)nicotinamide], for which the EC50 in experiment [1] came out at 1400 nM; in experiment [2] it was 47 nM. Further, the Emax in experiment [1] (setting [3]) is 36%; in experiment [2] (setting [4]), 64%.

With `CN(C)C(=O)c1ccc(N2CCC(CCCNC(=O)[C@]3(c4ccccc4)CCCO3)CC2)nc1Cl` [Example 5-19, (R)-2-chloro-N,N-dimethyl-6-(4-(3-(2-phenyltetrahydrofuran-2-carboxamido)propyl)piperidin-1-yl)nicotinamide], the figures for the EC50 in experiment [1] and in experiment [2] were 2340 nM and 160 nM, respectively. Also, the values for the Emax in experiment [1] (setting [3]) and in experiment [2] (setting [4]) were 36% and 104%, respectively.

Turning to `CN(C)C(=O)c1ccc(N2CCC(C)(CCCN(C)C(=O)[C@](O)(c3cccc(OC(F)(F)F)c3)C(F)(F)F)CC2)nc1Cl` [Example 9-5, (R)-2-chloro-N,N-dimethyl-6-(4-methyl-4-(3-(3,3,3-trifluoro-2-hydroxy-N-methyl-2-(3-(trifluoromethoxy)phenyl)pro-panamido)propyl)piperidin-1-yl)nicotinamide], the “LXR alpha IP (nM)” value in experiment [1] is “No IP”. Also, the Emax in experiment [1] (setting [3]) stood at 0%; in experiment [2] (setting [4]) it was 38%. The compound further registered a half-maximal effective concentration (EC50) in experiment [2] of 43 nM.

Consider `CN(C)C(=O)c1ccc(N2CCC(CCCN(C)C(=O)[C@@](C)(O)c3ccccc3)CC2)nc1Cl` [Example 1-21, (S)-2-chloro-6-(4-(3-(2-hydroxy-N-methyl-2-phenylpropanamido)propyl)piperidin-1-yl)-N,N-dimethylnicotinamide], for which the “LXR alpha IP (nM)” value in experiment [1] is recorded as “No IP”. For the same compound, the figures for the Emax in experiment [1] (setting [3]) and in experiment [2] (setting [4]) were 9% and 60%, respectively. This compound had an EC50 in experiment [2] of 330 nM.

Consider `COc1cccc([C@@](O)(C(=O)N[C@H](C)CCC2CCN(c3ccc(C(=O)N(C)C)c(Cl)n3)CC2)C(F)(F)F)c1` [Example 6-2, 2-chloro-N,N-dimethyl-6-(4-((R)-3-((R)-3,3,3-trifluoro-2-hydroxy-2-(3-methoxyphenyl)propanamido)butyl)piperidin-1-yl)nicotinamide], for which the EC50 in experiment [1] came to 2440 nM; in experiment [2], 98 nM. The Emax in experiment [1] (setting [3]) was found to be 29%; in experiment [2] (setting [4]) it was 116%.

In the case of `CN(C)C(=O)c1ccc(N2CCC(C)(CCCN(C)C(=O)[C@](O)(c3ccccc3)C(F)(F)F)CC2)nc1Cl` [Example 9-2, (R)-2-chloro-N,N-dimethyl-6-(4-methyl-4-(3-(3,3,3-trifluroo-2-hydroxy-N-methyl-2-phenylpropanamido)propyl)piper-idin-1-yl)nicotinamide], the values for the EC50 in experiment [1] and in experiment [2] were 441 nM and 18 nM, respectively. The Emax in experiment [1] (setting [3]) is 21%; in experiment [2] (setting [4]), 47%.

Consider `COc1cccc([C@@](O)(C(=O)N(C)CC(C)CC2CCN(c3ccc(C(=O)N(C)C)c(Cl)n3)CC2)C(F)(F)F)c1` (single isomer, unassigned) [Example 3-2], for which the “LXR alpha IP (nM)” value in experiment [1] is “No IP”. The Emax came out at 0% in experiment [1] (setting [3]) and 81% in experiment [2] (setting [4]). Also, the EC50 in experiment [2] came out at 53 nM.

As to `CCc1cccc([C@@](O)(C(=O)N(C)CCCC2CCN(c3ccc(C(=O)N(C)C)c(Cl)n3)CC2)C(F)(F)F)c1` [Example 1-28, (R)-2-chloro-6-(4-(3-(2-(3-ethylphenyl)-3,3,3-trifluoro-2-hydroxy-N-methylpropanamido)propyl)piperidin-1-yl)-N,N-dimethylnicotinamide], the “LXR alpha IP (nM)” value in experiment [1] was “No IP”. Moreover, the Emax in experiment [1] (setting [3]) stood at 0%; in experiment [2] (setting [4]), 39%. For the same compound, in experiment [2], the EC50 amounted to 67 nM.

On to `CN(C)C(=O)c1ccc(N2CCC(CCCN(C)C(=O)C(O)(c3ccccc3)C(F)(F)F)CC2)cc1Cl` (single isomer, unassigned) [Example 4-6, 2-chloro-N,N-dimethyl-4-(4-(3-(3,3,3-trifluoro-2-hydroxy-N-methyl-2-phenylpropanamido)propyl)piperidin-1-yl)benzamide], for which the EC50 in experiment [1] turned out to be 677 nM; in experiment [2], 77 nM. The “LXR alpha actiivty at max dose (%)” value in experiment [1] (setting [3]) stood at 15%. In experiment [2] (setting [4]), the “LXR beta actiivty at max dose (%)” value stood at 73%.

Take `COc1cccc([C@@](O)(C(=O)N(C)CC[C@H]2CC23CCN(c2ccc(C(=O)N(C)C(C)C)c(Cl)n2)CC3)C(F)(F)F)c1` [Example 7-17, 2-chloro-N-isopropyl-N-methyl-6-((R)-1-(2-((R)-3,3,3-trifluoro-2-hydroxy-2-(3-methoxyphenyl)-N-methylpropanamido)ethyl)-6-azaspiro[2.5]octan-6-yl)nicotinamide]: the EC50 came out at 160 nM in experiment [1] and 12 nM in experiment [2]. The Emax was determined as 36% in experiment [1] (setting [3]) and 59% in experiment [2] (setting [4]).

For `CCc1cccc([C@@](O)(C(=O)NCCCC2CCN(c3ccc(C(=O)N(C)C)c(Cl)n3)CC2)C(F)(F)F)c1` [Example 5-17, (R)-2-chloro-6-(4-(3-(2-(3-ethylphenyl)-3,3,3-trifluoro-2-hydroxypropanamido)propyl)piperidin-1-yl)-N,N-dimethylnicotinamide], in experiment [1], the “LXR alpha IP (nM)” value is reported as “No IP”. Further, the Emax amounted to 0% in experiment [1] (setting [3]) and 43% in experiment [2] (setting [4]). The same compound had an EC50 in experiment [2] of 401 nM.

`CN(C)C(=O)c1ccc(N2CCC(CCCN(C)C(=O)[C@@](O)(c3cccc(C(F)(F)F)c3)C(F)(F)F)CC2)nc1Cl` [Example 1-48, (S)-2-chloro-N,N-dimethyl-6-(4-(3-(3,3,3-trifluoro-2-hydroxy-N-methyl-2-(3-(trifluoromethyl)phenyl)pro-panamido)propyl)piperidin-1-yl)nicotinamide]: the “LXR alpha IP (nM)” value in experiment [1] was “No IP”. The Emax in experiment [1] (setting [3]) was determined as 2%; in experiment [2] (setting [4]), 43%. The EC50 in experiment [2] turned out to be 333 nM.

Usually EC50 stands for the concentration at which the effect is half-maximal.
